Assay results taken from patent publication US20250313563A1, “GLYCOGEN SYNTHASE KINASE 3 INHIBITORS AND USES THEREOF” (The Broad Institute, Inc., priority 2022, published 2025).
Like-named read-outs stand apart in the source and are kept apart here.

Columns and labels:
[1] = molecular target: GSK3α (GST-full length GSK3α) (Homo sapiens (Human), UniProt P49840); experiment: GSK3α TR-FRET kinase assay; type: biochemical
How it was run: (§1)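 IC50 came from the normalized 665/615 nm TR-FRET ratio plotted against log compound concentration. The Tb-labelled pSer641 antibody and streptavidin-d2 detected phosphorylation of biotinylated S645-primed glycogen synthase peptide (200 nM) by 1 nM full-length GST-kinase. ATP was 4 μM for α, 2 μM for β, or 1 mM.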

[2] = molecular target: GSK3b (GST-full length GSK3b) (Homo sapiens (Human), UniProt P49841); experiment: GSK3b TR-FRET kinase assay; type: biochemical
How it was run: as §1

[3] = 1 nM GSK3α, 4 μM ATP, 30 minute preincubation, Table 16, read-out: GSK3-A TR-FRET BIOCHEMICAL (TR-FRET)
[4] = 1 nM GSK3b, 2 μM ATP, 30 minute preincubation, Table 16, read-out: GSK3-B TR-FRET BIOCHEMICAL (TR-FRET)
[5] = 1 nM GSK3α, 4 μM ATP, 30 minute preincubation, Table 16, read-out: GSK3-A TR-FRET BIOCHEMICAL (TR-FRET), IC50
[6] = 1 nM GSK3b, 2 μM ATP, 30 minute preincubation, Table 16, read-out: GSK3-B TR-FRET BIOCHEMICAL (TR-FRET), IC50
[7] = 1 nM GSK3α, 4 μM ATP, 30 minute preincubation, read-out: GSK3-A TR-FRET BIOCHEMICAL (TR-FRET), IC50
[8] = GSK3-A (TR-FRET 1 mM ATP), GMean, IC50, 1 mM ATP, geometric mean
[9] = 1 nM GSK3b, 2 μM ATP, 30 minute preincubation, read-out: GSK3-B TR-FRET BIOCHEMICAL (TR-FRET), IC50
[10] = GSK3-B (TR-FRET 1 mM ATP), GMean, IC50, 1 mM ATP, geometric mean
[11] = read-out: GSK3-A (TR-FRET 1 mM ATP), GMean, IC50, 1 mM ATP, geometric mean
[12] = read-out: GSK3-B (TR-FRET 1 mM ATP), GMean, IC50, 1 mM ATP, geometric mean

GSK3b (GST-full length GSK3b), sequence (P49841 whole entry): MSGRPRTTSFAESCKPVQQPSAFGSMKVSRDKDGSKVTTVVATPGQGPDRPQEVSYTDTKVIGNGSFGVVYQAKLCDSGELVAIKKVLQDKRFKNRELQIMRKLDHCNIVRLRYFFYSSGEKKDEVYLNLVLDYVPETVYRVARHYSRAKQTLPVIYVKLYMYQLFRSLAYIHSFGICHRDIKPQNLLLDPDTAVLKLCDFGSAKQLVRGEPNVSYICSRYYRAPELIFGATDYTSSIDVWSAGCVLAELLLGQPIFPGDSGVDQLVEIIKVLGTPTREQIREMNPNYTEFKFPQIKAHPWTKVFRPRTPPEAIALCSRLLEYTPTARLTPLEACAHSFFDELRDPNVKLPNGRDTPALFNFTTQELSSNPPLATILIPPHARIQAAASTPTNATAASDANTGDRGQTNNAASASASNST
GSK3α (GST-full length GSK3α), sequence (P49840 whole entry): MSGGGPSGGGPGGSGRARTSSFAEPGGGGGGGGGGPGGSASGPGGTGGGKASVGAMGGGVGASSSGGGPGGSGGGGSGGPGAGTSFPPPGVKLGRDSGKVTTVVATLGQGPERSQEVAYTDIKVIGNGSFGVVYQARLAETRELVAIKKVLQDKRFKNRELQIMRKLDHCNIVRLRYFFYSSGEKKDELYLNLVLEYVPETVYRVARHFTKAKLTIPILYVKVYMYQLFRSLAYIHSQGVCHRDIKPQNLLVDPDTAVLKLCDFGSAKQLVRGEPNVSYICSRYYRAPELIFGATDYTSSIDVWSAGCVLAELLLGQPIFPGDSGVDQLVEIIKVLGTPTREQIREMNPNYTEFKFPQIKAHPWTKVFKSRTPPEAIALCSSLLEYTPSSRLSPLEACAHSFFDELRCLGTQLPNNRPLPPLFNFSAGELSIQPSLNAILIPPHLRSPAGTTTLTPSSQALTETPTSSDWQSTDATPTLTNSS

Compound	IC50 [1, 5] [nM]	IC50 [2, 6] [nM]	also measured
CC1(C)CC(=O)C2=C(Nc3n[nH]cc3C23CCN(S(=O)(=O)c2ccccc2C(F)F)CC3)[C@@H]1F [Compound 951846]	–	–	IC50 [1, 3]: ≤ 100 nM; IC50 [2, 4]: 100 to 1000 nM
CC[C@]1(c2cccc(-c3cnn(Cc4cccc(C(F)(F)F)c4)c3)c2)C2=C(CC(C)(C)NC2=O)Nc2n[nH]cc21 [Compound 951848]	≤ 100	100 to 1000	–
CCC1(c2cccc(-c3cnn(Cc4ccc(C(F)(F)F)cc4)c3)c2)C2=C(CC(C)(C)NC2=O)Nc2n[nH]cc21 (stereo not shown) [Compound 951849]	≤ 100	100 to 1000	–
CC1(C)CC(=O)C2=C(C1)Nc1n[nH]cc1[C@]21CCN(S(=O)(=O)c2cccc(F)c2)C1 [Compound 951861]	–	–	IC50 [1, 7]: ≤ 100 nM; IC50 [1, 8]: 100 to 1000 nM; IC50 [2, 9]: ≤ 100 nM; IC50 [2, 10]: 100 to 1000 nM
CC1(C)CC(=O)C2=C(C1)Nc1n[nH]cc1[C@@]21CCN(S(=O)(=O)c2cccc(F)c2)C1 [Compound 951862]	–	–	IC50 [1, 3]: ≤ 100 nM; IC50 [2, 4]: ≤ 100 nM
Cc1cccc(S(=O)(=O)N2CC[C@]3(C2)C2=C(CC(C)(C)CC2=O)Nc2n[nH]cc23)c1 [Compound 951863]	–	–	IC50 [1, 7]: ≤ 100 nM; IC50 [1, 8]: 100 to 1000 nM; IC50 [2, 9]: ≤ 100 nM; IC50 [2, 10]: 100 to 1000 nM
Cc1cccc(S(=O)(=O)N2CC[C@@]3(C2)C2=C(CC(C)(C)CC2=O)Nc2n[nH]cc23)c1 [Compound 951864]	–	–	IC50 [1, 3]: ≤ 100 nM; IC50 [1, 8]: 100 to 1000 nM; IC50 [2, 4]: ≤ 100 nM; IC50 [2, 10]: 1000 to 5000 nM
CC[C@@]1(c2cccc(C(F)(F)F)c2)C2=C(CCN(c3cc(C)n(C)n3)C2=O)Nc2n[nH]cc21 [Compound 951939]	≤ 100	100 to 1000	–
CC[C@]1(c2cccc(C(F)F)c2)C2=C(CC(C)(C)NC2=O)Nc2n[nH]c(C(F)(F)F)c21 [Compound 951946]	100 to 1000	1000 to 5000	–
CCC1(c2cccc(C(F)F)c2)C2=C(CC(C)(C)NC2=O)Nc2n[nH]c(C(F)(F)F)c21 (stereo not shown) [Compound 951948]	≤ 100	≤ 100	IC50 [1, 11]: ≤ 100 nM; IC50 [2, 12]: 100 to 1000 nM
CC[C@]1(c2cccc(C(F)(F)F)c2)C2=C(CCN(c3cc(C)n(C)n3)C2=O)Nc2n[nH]cc21 [Compound 951954]	> 5000	> 5000	–
CC[C@]1(c2cccc(-c3cnn(-c4ccncn4)c3)c2)C2=C(CC(C)(C)NC2=O)Nc2n[nH]cc21 [Compound 952016]	100 to 1000	1000 to 5000	–
CC[C@]1(c2cccc(-c3cc(C(F)(F)F)nn3C)c2)C2=C(CC(C)(C)NC2=O)Nc2n[nH]cc21 [Compound 952018]	100 to 1000	1000 to 5000	–
CC[C@]1(c2cccc(-c3cnn4c3OCCC4)c2)C2=C(CC(C)(C)NC2=O)Nc2n[nH]cc21 [Compound 952019]	≤ 100	100 to 1000	–
CC[C@]1(c2cccc(-c3c(C)cnn3C)c2)C2=C(CC(C)(C)NC2=O)Nc2n[nH]cc21 [Compound 952021]	≤ 100	≤ 100	IC50 [1, 11]: 100 to 1000 nM; IC50 [2, 12]: > 5000 nM
CCC1(c2cccc(-c3cnn(CCN4CCCC4)c3)c2)C2=C(CC(C)(C)NC2=O)Nc2n[nH]cc21 (stereo not shown) [Compound 952022]	100 to 1000	1000 to 5000	–
CCC1(c2cccc(-c3cc(C4CCCC4)nn3C)c2)C2=C(CC(C)(C)NC2=O)Nc2n[nH]cc21 (stereo not shown) [Compound 952023]	100 to 1000	1000 to 5000	–
CC[C@]1(c2cccc(-c3cnn(-c4cccnc4)c3)c2)C2=C(CC(C)(C)NC2=O)Nc2n[nH]cc21 [Compound 952024]	100 to 1000	> 5000	–
CC[C@]1(c2cccc(-c3ccncc3C(F)(F)F)c2)C2=C(CC(C)(C)NC2=O)Nc2n[nH]cc21 [Compound 952025]	≤ 100	≤ 100	IC50 [1, 11]: ≤ 100 nM; IC50 [2, 12]: 1000 to 5000 nM
CC1(C)CC(=O)C2=C(C1)Nc1n[nH]cc1[C@@]21CC[C@H](C(F)(F)F)C1 [Compound 952434]	–	–	IC50 [1, 3]: 100 to 1000 nM; IC50 [2, 4]: 100 to 1000 nM
CC1(C)CC(=O)C2=C(C1)Nc1n[nH]cc1[C@]21CC[C@H](C(F)(F)F)C1 [Compound 952435]	–	–	IC50 [1, 3]: ≤ 100 nM; IC50 [2, 4]: 100 to 1000 nM
CC1(C)CC(=O)C2=C(C1)Nc1n[nH]cc1[C@@]21CC[C@@H](C(F)(F)F)C1 [Compound 952436]	–	–	IC50 [1, 3]: ≤ 100 nM; IC50 [1, 8]: 1000 to 5000 nM; IC50 [2, 4]: ≤ 100 nM; IC50 [2, 10]: 1000 to 5000 nM
CC1(C)CC(=O)C2=C(C1)Nc1n[nH]cc1[C@]21CC[C@@H](C(F)(F)F)C1 [Compound 952437]	–	–	IC50 [1, 3]: 100 to 1000 nM; IC50 [2, 4]: 100 to 1000 nM

The next lines start with results.

IC50 [1, 5] [nM]	IC50 [2, 6] [nM]	Compound	also measured
1000 to 5000	> 5000	CCC1(c2cccc(N(C)c3ncccn3)c2)C2=C(CC(C)(C)C2=O)Nc2n[nH]cc21 (stereo not shown) [Compound 952205]	–
100 to 1000	1000 to 5000	CCC1(c2cccc(-c3cnn(-c4cnccn4)c3)c2)C2=C(CC(C)(C)NC2=O)Nc2n[nH]cc21 (stereo not shown) [Compound 952207]	–
100 to 1000	> 5000	CC[C@]1(c2cccc(-c3cnn(CC(=O)N(C)C)c3)c2)C2=C(CC(C)(C)NC2=O)Nc2n[nH]cc21 [Compound 952208]	–
≤ 100	100 to 1000	CCC1(c2cccc(-c3cnn(CC#N)c3)c2)C2=C(CC(C)(C)NC2=O)Nc2n[nH]cc21 (stereo not shown) [Compound 952210]	–
≤ 100	100 to 1000	CC[C@@]1(c2cccc(N(C)c3ncccn3)c2)C2=C(CC(C)(C)C2=O)Nc2n[nH]cc21 [Compound 952212]	IC50 [1, 11]: 100 to 1000 nM; IC50 [2, 12]: > 5000 nM
≤ 100	100 to 1000	CC[C@]1(c2cccc(C(F)(F)F)c2)C2=C(CCN(c3cnn(C)c3C)C2=O)Nc2n[nH]cc21 [Compound 952257]	–
> 5000	> 5000	CCC1(c2cccc(C(F)(F)F)c2)C2=C(CCN(c3cnn(C)c3C)C2=O)Nc2n[nH]cc21 (stereo not shown) [Compound 952262]	–
≤ 100	≤ 100	CC[C@]1(c2cccc(-c3c(C#N)cnn3C)c2)C2=C(CC(C)(C)NC2=O)Nc2n[nH]c(C)c21 [Compound 952410]	IC50 [1, 11]: 100 to 1000 nM; IC50 [2, 12]: 1000 to 5000 nM
1000 to 5000	> 5000	CC[C@]1(c2cccc(-c3cc(-c4ccccc4)nn3C(C)C)c2)C2=C(CC(C)(C)NC2=O)Nc2n[nH]cc21 [Compound 952411]	–
1000 to 5000	> 5000	CC[C@@]1(c2cccc(C(F)(F)F)c2)C2=C(CCN(c3cn(C)c(C)n3)C2=O)Nc2n[nH]cc21 [Compound 952478]	–
> 5000	> 5000	CC[C@]1(c2cccc(C(F)(F)F)c2)C2=C(CCN(c3cn(C)c(C)n3)C2=O)Nc2n[nH]cc21 [Compound 952479]	–
≤ 100	100 to 1000	CCC1(c2cccc(-c3ccnc4c3CCC4)c2)C2=C(CC(C)(C)C2=O)Nc2n[nH]cc21 (stereo not shown) [Compound 952557]	–
100 to 1000	100 to 1000	CCc1cc(-c2cccc([C@@]3(CC)C4=C(CC(C)(C)NC4=O)Nc4n[nH]cc43)c2)n(C)n1 [Compound 952561]	–
1000 to 5000	> 5000	CC[C@]1(c2cccc(-c3c(F)cncc3OC)c2)C2=C(CC(C)(C)C2=O)Nc2n[nH]cc21 [Compound 952562]	–
1000 to 5000	> 5000	CC[C@]1(c2cccc(-c3cc(C)nc4c3cnn4C)c2)C2=C(CC(C)(C)NC2=O)Nc2n[nH]cc21 [Compound 952563]	–
≤ 100	≤ 100	CC[C@@]1(c2cccc(-c3c(F)cncc3OC)c2)C2=C(CC(C)(C)C2=O)Nc2n[nH]cc21 [Compound 952564]	IC50 [1, 11]: 100 to 1000 nM; IC50 [2, 12]: 1000 to 5000 nM
≤ 100	100 to 1000	CC[C@]1(c2cccc(-c3cnn4ccncc34)c2)C2=C(CC(C)(C)NC2=O)Nc2n[nH]cc21 [Compound 952565]	IC50 [1, 11]: 1000 to 5000 nM; IC50 [2, 12]: > 5000 nM
100 to 1000	1000 to 5000	CCC1(c2cccc(-c3cnn(-c4ccccn4)c3)c2)C2=C(CC(C)(C)NC2=O)Nc2n[nH]cc21 (stereo not shown) [Compound 952566]	IC50 [1, 11]: > 5000 nM; IC50 [2, 12]: > 5000 nM
≤ 100	100 to 1000	CC[C@@]1(c2cccc(C(F)(F)F)c2)C2=C(CCN(c3ccsc3)C2=O)Nc2n[nH]cc21 [Compound 952630]	–
> 5000	> 5000	CC[C@]1(c2cccc(C(F)(F)F)c2)C2=C(CCN(c3ccsc3)C2=O)Nc2n[nH]cc21 [Compound 952636]	–
> 5000	> 5000	CC[C@]1(c2cccc(C(F)(F)F)c2)C2=C(CCN(c3cscn3)C2=O)Nc2n[nH]cc21 [Compound 952638]	–
≤ 100	100 to 1000	CCC1(c2cccc(-c3ccnc4c3CCCC4)c2)C2=C(CC(C)(C)C2=O)Nc2n[nH]cc21 (stereo not shown) [Compound 952752]	–
≤ 100	100 to 1000	CC[C@]1(c2cccc(-c3ccnc(OC)c3Cl)c2)C2=C(CC(C)(C)NC2=O)Nc2n[nH]cc21 [Compound 952754]	–
1000 to 5000	> 5000	CC[C@]1(c2cccc(-c3ccncc3C(F)(F)F)c2)C2=C(CC(C)(C)C2=O)Nc2n[nH]cc21 [Compound 952757]	–
